According to patent US20260266848A1, “COMPOSITIONS AND METHODS FOR DIAGNOSING AND TREATING DYSTONIA” (Duke University, priority 2023, published 2026):

Columns and labels:
[1] = test system: DYT1 patient plasma derived EVs; assay: Plasma-derived EV proteomics (ExoQuick ULTRA, DIA LC/MS/MS), DYT1 vs Healthy Controls; design: species or system human; conditions: Hs. Plasma EVs (DYT1/WT); significance of genotype difference
Experimental: Data was obtained for extracellular vesicles using previously acquired samples. The ExoQuick® ULTRA EV Isolation System was used to fractionate and enrich EVs from plasma. Isolated plasma EV samples were then submitted to proteomic analysis by the Duke Proteomics and Metabolomics Core Facility (DPMCF). At the DPMCF, quantitative (LC/MS/MS) was performed on 500 ng of each sample, using an EvoSep One UPLC system coupled to a Thermo Orbitrap Astral high-resolution accurate mass tandem mass spectrometer (Thermo). Briefly, the sample was eluted directly from an Evotip which was subjected to a low organic wash and then subjected to an analytical separation using a 1.7 μm EvoSep 150 um ID×15 cm endurance (EveoSep) column running an SPD30 gradient from approximately 5 to 30% acetonitrile with 0.1% formic acid with a column temperature of 50 C. Data collection on the Orbitrap Astral mass spectrometer was performed in a data-independent acquisition (DIA) mode of acquisition with a r=240,000 (@m/z 200) full MS scan from m/z 380-980 with a target AGC value of 4e5 ions. Fixed DIA, windows of 4 m/z from m/z 380 to 980 DIA MS/MS scans were acquired in the Astral with a target AGC value of 5e4 and a max fill time of 6 ms. HCD collision energy setting of 27% was used for all MS2 scans.

[2] = test system: DYT-TOR1A MEF EVs; assay: Quantitative LC-MS/MS proteomics of EVs from drug-treated DYT-TOR1A MEF cultures (ritonavir, salubrinal); format: cell-based, mouse; design: key to RTV Corrective Direction / RTV Corrective Direction, Grwd1 / RTV Corrective Direction, Srrm2 / RTV Corrective Direction, Rbm17 / RTV Corrective Direction, Dcaf8 / RTV Corrective Direction, Edil3 / RTV Corrective Direction, Timp3 / RTV Corrective Direction, Heatr3 / RTV Corrective Direction, Brd4 / RTV Corrective Direction, P3h4 / RTV Corrective Direction, Pacsin3 / RTV Corrective Direction, Naa50 / RTV Corrective Direction, Lpar6 / RTV Corrective Direction, Ndrg1 / RTV Corrective Direction, Kntc1 / RTV Corrective Direction, Cdk11b / RTV Corrective Direction, Sumo1 / RTV Corrective Direction, Lsm4 / RTV Corrective Direction, Hmga2 / RTV Corrective Direction, Cstf1 / RTV Corrective Direction, Tes / RTV Corrective Direction, Sbno1 / RTV Corrective Direction, Unc119b / RTV Corrective Direction, Cfdp1 / RTV Corrective Direction, Sec61b: YES = protein abundance effect opposite to DYT/WT; conditions: EV protein abundance; for RTV Corrective Direction: DYT + RTV (ritonavir) vs DYT, direction compared with DYT/WT; for DYT + RTV/DYT Cohen's d: ritonavir (RTV)-treated DYT vs DYT
[3] = test system: WT MEF EVs; assay: Quantitative LC-MS/MS proteomics of EVs from ISRIB-treated WT MEF cultures; format: cell-based, mouse; design: key to ISRIB and DYT Parallel Direction / ISRIB and DYT Parallel Direction, Ctdsp1 / ISRIB and DYT Parallel Direction, Pcdh19 / ISRIB and DYT Parallel Direction, Tspan7 / ISRIB and DYT Parallel Direction, Myo1e / ISRIB and DYT Parallel Direction, Plpp3 / ISRIB and DYT Parallel Direction, Sh3bp4 / ISRIB and DYT Parallel Direction, Dnajc7 / ISRIB and DYT Parallel Direction, Drg1 / ISRIB and DYT Parallel Direction, Maea: YES = protein abundance effect similar to DYT/WT; conditions: EV protein abundance; for WT + ISRIB/WT Cohen's d: ISRIB-treated WT vs WT; for ISRIB and DYT Parallel Direction: WT + ISRIB vs WT, direction compared with DYT/WT

Substance | -LogP [1] | RTV Corrective Direction [2] | DYT + RTV/DYT Cohen's d [2] | WT + ISRIB/WT Cohen's d [3] | ISRIB and DYT Parallel Direction [3]
CRYAB | 1.577 |  |  |  | 
Oxsr1 |  | YES | 5.88 | −0.72 | YES
TLN1 | 1.51 |  |  |  | 
Huwe1 |  | YES | 5.04 | −3.93 | YES
Usp7 |  | YES | 6.89 | −1.90 | YES
Itpa |  | YES | 12.80 | −1.25 | YES
Otub1 |  | YES | 5.84 | −2.26 | YES
Akr1b1 |  | YES | 5.32 | −0.22 | YES
Tardbp |  | YES | 0.80 | 0.28 | YES
Svep1 |  | YES | −0.40 | −0.50 | 
Ltbp2 |  | YES | −5.72 | 0.70 | YES
Col5a1 |  | YES | −0.89 | 0.06 | YES
Spp1 |  | YES | −6.93 | 2.67 | YES
Col10a1 |  | YES | −3.41 | 0.36 | YES
Cope |  | YES | 7.24 | −1.30 | YES
PSMC5 | 1.615 |  |  |  | 
Rab1b |  | YES | 1.15 | −2.54 | YES
MYH9 | 1.313 |  |  |  | 
Sptbn1 |  | YES | 3.27 | −0.82 | YES
Cnot1 |  | YES | 5.54 | −2.56 | YES
TLN2 | 1.45 |  |  |  | 
Ilf2 |  | YES | 2.47 | −1.37 | YES
Cul3 |  | YES | 2.36 | −0.66 | YES
PCMT1 | 1.506 |  |  |  | 
Pgp |  | YES | 2.28 | −0.86 | YES
